Experiments:
[1] = Selectivity index, ratio of IC50 for human HaCaT cells to IC50 for human K562 cells; type: toxicity; conditions: HaCaT cells and K562 cells, read-out: Ratio IC50
[2] = Antiproliferative activity against human HaCaT cells assessed as inhibition of cell proliferation measured after 72 hrs by MTT assay; type: toxicity, cell-based
[3] = system: K562; assay: Antiproliferative activity against human K562 cells assessed as inhibition of cell proliferation measured after 72 hrs by MTT assay; type: functional, cell-based; conditions: K562, 72 h
[4] = Antiproliferative activity against J774.2 cells assessed as inhibition of cell proliferation measured after 72 hrs by MTT assay; type: toxicity, cell-based; conditions: mouse
[5] = Antiproliferative activity against NIH3T3 cells assessed as inhibition of cell proliferation measured after 72 hrs by MTT assay; type: toxicity, cell-based; conditions: mouse
[6] = system: OVCAR-4; assay: Antiproliferative activity against human OVCAR-4 cells assessed as inhibition of cell proliferation measured after 48 hrs by SRB assay; type: functional, cell-based; conditions: OVCAR-4, 48 h
[7] = system: CAKI-1; assay: Antiproliferative activity against human CAKI-1 cells assessed as inhibition of cell proliferation measured after 48 hrs by SRB assay; type: functional, cell-based; conditions: CAKI-1, 48 h
[8] = system: BT-549; assay: Antiproliferative activity against human BT-549 cells assessed as inhibition of cell proliferation measured after 48 hrs by SRB assay; type: functional, cell-based; conditions: BT-549, 48 h
[9] = system: UACC-62; assay: Antiproliferative activity against human UACC-62 cells assessed as inhibition of cell proliferation measured after 48 hrs by SRB assay; type: functional, cell-based; conditions: UACC-62, 48 h
[10] = system: PC-3; assay: Antiproliferative activity against human PC-3 cells assessed as inhibition of cell proliferation measured after 48 hrs by SRB assay; type: functional, cell-based; conditions: PC-3, 48 h
[11] = system: SK-MEL-5; assay: Antiproliferative activity against human SK-MEL-5 cells assessed as inhibition of cell proliferation measured after 48 hrs by SRB assay; type: functional, cell-based; conditions: SK-MEL-5, 48 h
[12] = system: NCI/ADR-RES; assay: Antiproliferative activity against human NCI-ADR-RES cells assessed as inhibition of cell proliferation measured after 48 hrs by SRB assay; type: functional, cell-based
[13] = system: KM12; assay: Antiproliferative activity against human KM12 cells assessed as inhibition of cell proliferation measured after 48 hrs by SRB assay; type: functional, cell-based; conditions: KM12, 48 h
[14] = system: MDA-MB-468; assay: Antiproliferative activity against human MDA-MB-468 cells assessed as inhibition of cell proliferation measured after 48 hrs by SRB assay; type: functional, cell-based; conditions: MDA-MB-468, 48 h
[15] = system: CAKI-1; assay: Anticancer activity against human CAKI-1 cells assessed as cell growth at 10^-5 M incubated for 48 hrs by SRB assay relative to control; type: functional; conditions: CAKI-1, 48 h, dose 1 10^-5M, read-out: Activity
[16] = Selectivity index, ratio of IC50 for […] to IC50 for human K562 cells; type: functional
[17] = system: UACC-62; assay: Inhibition of cell growth in human UACC-62 cells incubated for 48 hrs by SRB assay; type: functional, cell-based; conditions: UACC-62, 48 h
[18] = system: HCC 2998; assay: Anticancer activity against human HCC 2998 cells assessed as cell growth at 10^-5 M incubated for 48 hrs by SRB assay relative to control; type: functional; conditions: HCC 2998, 48 h, dose 1 10^-5M, read-out: Activity
[19] = system: SK-MEL-5; assay: Anticancer activity against human SK-MEL-5 cells assessed as cell growth at 10^-5 M incubated for 48 hrs by SRB assay relative to control; type: functional; conditions: SK-MEL-5, 48 h, dose 1 10^-5M, read-out: Activity
[20] = system: K562; assay: Anticancer activity against human K562 cells assessed as cell growth at 10^-5 M incubated for 48 hrs by SRB assay relative to control; type: functional; conditions: K562, 48 h, dose 1 10^-5M, read-out: Activity
[21] = system: M14; assay: Inhibition of cell growth in human M14 cells incubated for 48 hrs by SRB assay; type: functional, cell-based; conditions: M14, 48 h
[22] = system: NCI-H460; assay: Anticancer activity against human NCI-H460 cells assessed as cell growth at 10^-5 M incubated for 48 hrs by SRB assay relative to control; type: functional; conditions: NCI-H460, 48 h, dose 1 10^-5M, read-out: Activity
[23] = system: M14; assay: Anticancer activity against human M14 cells assessed as cell growth at 10^-5 M incubated for 48 hrs by SRB assay relative to control; type: functional; conditions: M14, 48 h, dose 1 10^-5M, read-out: Activity
[24] = system: SW-620; assay: Inhibition of cell growth in human SW-620 cells incubated for 48 hrs by SRB assay; type: functional, cell-based; conditions: SW-620, 48 h
[25] = system: SF-295; assay: Anticancer activity against human SF-295 cells assessed as cell growth at 10^-5 M incubated for 48 hrs by SRB assay relative to control; type: functional; conditions: SF-295, 48 h, dose 1 10^-5M, read-out: Activity
[26] = system: HCT-15; assay: Inhibition of cell growth in human HCT-15 cells incubated for 48 hrs by SRB assay; type: functional, cell-based; conditions: HCT-15, 48 h
[27] = system: LOX IMVI; assay: Anticancer activity against human LOX IMVI cells assessed as cell growth at 10^-5 M incubated for 48 hrs by SRB assay relative to control; type: functional; conditions: dose 1 10^-5M, read-out: Activity
[28] = system: K562; assay: Inhibition of cell growth in human K562 cells incubated for 48 hrs by SRB assay; type: functional, cell-based; conditions: K562, 48 h
[29] = system: UACC-62; assay: Anticancer activity against human UACC-62 cells assessed as cell growth at 10^-5 M incubated for 48 hrs by SRB assay relative to control; type: functional; conditions: UACC-62, 48 h, dose 1 10^-5M, read-out: Activity
[30] = system: DU-145; assay: Antiproliferative activity against human DU-145 cells assessed as inhibition of cell proliferation incubated for 3 days by Alamar blue dye based assay; type: functional; conditions: DU-145, 72 h
[31] = biological target: NAD-dependent protein deacetylase sirtuin-2 (Homo sapiens, UniProt Q8IXJ6); assay: Inhibition of N-terminal His6-tagged human Sirt2 (25 to 389 residues) using ZMAL as substrate incubated for 4 hrs by fluorescence based assay
[32] = system: HeLa; assay: Antiproliferative activity against human HeLa cells assessed as inhibition of cell proliferation measured after 48 hrs by MTT assay; type: functional, cell-based
[33] = system: NCI/ADR-RES; assay: Anticancer activity against human NCI/ADR-RES cells assessed as cell growth at 10^-5 M incubated for 48 hrs by SRB assay relative to control; type: functional; conditions: dose 1 10^-5M, read-out: Activity
[34] = system: MOLT-4; assay: Anticancer activity against human MOLT-4 cells assessed as cell growth at 10^-5 M incubated for 48 hrs by SRB assay relative to control; type: functional; conditions: MOLT-4, 48 h, dose 1 10^-5M, read-out: Activity
[35] = system: MDA-MB-468; assay: Anticancer activity against human MDA-MB-468 cells assessed as cell growth at 10^-5 M incubated for 48 hrs by SRB assay relative to control; type: functional; conditions: MDA-MB-468, 48 h, dose 1 10^-5M, read-out: Activity
[36] = system: MCF7; assay: Anticancer activity against human MCF7 cells assessed as cell growth at 10^-5 M incubated for 48 hrs by SRB assay relative to control; type: functional; conditions: MCF7, 48 h, dose 1 10^-5M, read-out: Activity
[37] = system: A549; assay: Anticancer activity against human A549 cells assessed as cell growth at 10^-5 M incubated for 48 hrs by SRB assay relative to control; type: functional; conditions: A549, 48 h, dose 1 10^-5M, read-out: Activity
[38] = system: MDA-MB-435; assay: Anticancer activity against human MDA-MB-435 cells assessed as cell growth at 10^-5 M incubated for 48 hrs by SRB assay relative to control; type: functional; conditions: MDA-MB-435, 48 h, dose 1 10^-5M, read-out: Activity
[39] = system: ACHN; assay: Anticancer activity against human ACHN cells assessed as cell growth at 10^-5 M incubated for 48 hrs by SRB assay relative to control; type: functional; conditions: dose 1 10^-5M, read-out: Activity
[40] = system: HCT-15; assay: Anticancer activity against human HCT-15 cells assessed as cell growth at 10^-5 M incubated for 48 hrs by SRB assay relative to control; type: functional; conditions: HCT-15, 48 h, dose 1 10^-5M, read-out: Activity
[41] = system: KM12; assay: Anticancer activity against human KM12 cells assessed as cell growth at 10^-5 M incubated for 48 hrs by SRB assay relative to control; type: functional; conditions: KM12, 48 h, dose 1 10^-5M, read-out: Activity
[42] = system: OVCAR-4; assay: Anticancer activity against human OVCAR-4 cells assessed as cell growth at 10^-5 M incubated for 48 hrs by SRB assay relative to control; type: functional; conditions: OVCAR-4, 48 h, dose 1 10^-5M, read-out: Activity

NAD-dependent protein deacetylase sirtuin-2, sequence (Q8IXJ6 whole entry, the tested form may be a part): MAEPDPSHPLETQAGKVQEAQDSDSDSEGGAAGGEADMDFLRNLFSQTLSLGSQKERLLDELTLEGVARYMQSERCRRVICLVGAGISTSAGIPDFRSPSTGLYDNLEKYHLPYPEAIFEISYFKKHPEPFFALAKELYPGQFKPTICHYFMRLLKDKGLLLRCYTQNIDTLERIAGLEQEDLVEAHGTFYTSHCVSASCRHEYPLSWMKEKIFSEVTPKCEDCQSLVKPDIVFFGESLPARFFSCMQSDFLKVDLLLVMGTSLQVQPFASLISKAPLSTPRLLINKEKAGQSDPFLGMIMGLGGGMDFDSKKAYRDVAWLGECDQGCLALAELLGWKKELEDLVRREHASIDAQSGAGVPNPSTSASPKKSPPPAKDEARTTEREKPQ

## O=C(Nc1ncc(Cc2ccccc2)s1)c1ccc(-n2cnnn2)cc1
[1]
  selectivity ratio: 4
[2]
  IC50 at 72 h: 33 µM
[3]
  IC50: 8.3 µM
[4]
  IC50 at 72 h: 48.1 µM
[5]
  IC50 at 72 h: > 100 µM

## O=C(Nc1ncc(Cc2ccccc2)s1)c1ccc(-n2cnnn2)cc1O
[2]
  IC50 at 72 h: > 100 µM
[3]
  IC50: > 100 µM
[4]
  IC50 at 72 h: 22.2 µM
[5]
  IC50 at 72 h: > 100 µM

## Cc1cnnn1-c1ccc(C(=O)Nc2ncc(Cc3ccccc3)s2)cc1
[6]
  IC50: 3.02 µM
[7]
  IC50: 4.7 µM
[8]
  IC50: 3.99 µM
[9]
  IC50: 3.28 µM
[10]
  IC50: 4.26 µM
[11]
  IC50: 2.8 µM
[12]
  IC50: 4.06 µM
[13]
  IC50: 3.68 µM
[14]
  IC50: 2.02 µM

## O=C(Nc1ncc(Cc2cc(Cl)ccc2Cl)s1)c1ccc(-n2cnnn2)cc1
[15]
  growth at 10 µM: 29%
[16]
  Ratio IC50: 4.6
[17]
  IC50: 0.364 µM
[2]
  IC50 at 72 h: > 100 µM
[18]
  growth at 10 µM: 22.7%
[19]
  growth at 10 µM: 22.4%
[20]
  growth at 10 µM: 22.8%
[21]
  IC50: 0.696 µM
[22]
  growth at 10 µM: 33%
[3]
  IC50: 7.57 µM
[23]
  growth at 10 µM: 24.6%
[4]
  IC50 at 72 h: 34.7 µM
[24]
  IC50: 0.508 µM
[25]
  growth at 10 µM: 30.9%
[5]
  IC50 at 72 h: > 100 µM
[26]
  IC50: 0.894 µM
[27]
  growth at 10 µM: 22.6%
[28]
  IC50: 0.577 µM
[29]
  growth at 10 µM: 8.26%

## COc1ccc(Cc2cnc(NC(=O)/C=C/c3ccco3)s2)cc1
[30]
  IC50: 0.015 µM

## COCCn1cc(COc2cccc(Cc3cnc(NC(=O)CSc4nc(C)cc(C)n4)s3)c2)nn1
[31]
  IC50: 0.118 µM

## CC(C)(C)c1nc(NC(=O)CN2CCN(c3ccc(O)cc3)CC2)sc1Cc1ccc(Cl)cc1
[32]
  IC50: 1.6 µM

## O=C(Nc1ncc(Cc2cccc(C(F)(F)F)c2)s1)c1ccc(-n2cnnn2)cc1
[15]
  growth at 10 µM: 30.1%
[16]
  Ratio IC50: 1.8
[33]
  growth at 10 µM: 35.9%
[34]
  growth at 10 µM: 39.4%
[35]
  growth at 10 µM: 16.7%
[2]
  IC50 at 72 h: > 100 µM
[36]
  growth at 10 µM: 28.7%
[37]
  growth at 10 µM: 34.4%
[38]
  growth at 10 µM: 24%
[39]
  growth at 10 µM: 32%
[19]
  growth at 10 µM: 37.8%
[40]
  growth at 10 µM: 38.7%
[20]
  growth at 10 µM: 21%
[41]
  growth at 10 µM: 28.8%
[22]
  growth at 10 µM: 30.5%
[3]
  IC50: 23.7 µM
[4]
  IC50 at 72 h: 43.2 µM
[42]
  growth at 10 µM: 33.6%
[25]
  growth at 10 µM: 32.2%
[5]
  IC50 at 72 h: > 100 µM
[29]
  growth at 10 µM: 19.8%

## COc1ccc(Cc2cnc(NC(=O)c3ccc(-n4cnnn4)cc3)s2)cc1
[2]
  IC50 at 72 h: > 100 µM
[20]
  growth at 10 µM: 36.7%
[3]
  IC50: > 100 µM
[4]
  IC50 at 72 h: 8.22 µM
[5]
  IC50 at 72 h: > 100 µM

— ChEMBL document CHEMBL5335775, “Bioisosteric replacement of 1H-1,2,3-triazole with 1H-tetrazole ring enhances anti-leukemic activity of (5-benzylthiazol-2-yl)benzamides” (Eur J Med Chem, 2023)
